# Assay results: paper PMC5903252 (British Journal of Clinical Pharmacology, 2018)
# Entries after “also recorded” stand apart in the source; their conditions may differ.
# Legend:
# aPTT = assay: Activated partial thromboplastin time; format: in vivo, human; settings: for Mean aPTT (± SEM) / aPTT % Change from baseline: immediately prior to the end of infusion
# PT/INR = assay: Prothrombin time/international normalized ratio; format: in vivo, human; settings: part A and part B
# [1] = Safety and tolerability, adverse events in healthy subjects; format: in vivo, human
# Renal safety assessment = format: in vivo, human
# rabbit models = settings: preclinical; cited from earlier work
# [2] = Plasma pharmacokinetics of BMS-962212 after IV infusion; settings: human, in vivo
# [3] = part A 2-h IV infusion 1.5 mg h^−1
# [4] = part A 2-h IV infusion 4 mg h^−1
# [5] = part A 2-h IV infusion 10 mg h^−1
# [6] = part A 2-h IV infusion 25 mg h^−1
# [7] = part B 5-day IV infusion 1 mg h^−1, Japanese subjects
# [8] = part B 5-day IV infusion 1 mg h^−1, non-Japanese subjects
# [9] = part B 5-day IV infusion 3 mg h^−1, Japanese subjects
# [10] = part B 5-day IV infusion 3 mg h^−1, non-Japanese subjects
# [11] = part B 5-day IV infusion 9 mg h^−1, Japanese subjects
# [12] = part B 5-day IV infusion 9 mg h^−1, non-Japanese subjects
# [13] = part B 5-day IV infusion 20 mg h^−1, Japanese subjects
# [14] = part B 5-day IV infusion 20 mg h^−1, non-Japanese subjects
# [15] = part A panel 1, 1.5 mg h^−1 2-h IV infusion, peak at 12 h after initiation
smiles,measurement,setting,value
CN1CCN(c2cccc3c2CCN(C(=O)/C=C/c2c(-n4cnnn4)ccc(Cl)c2F)[C@@H]3C(=O)Nc2ccc(C(=O)O)cc2)C(=O)C1 [BMS‐962212],Mean aPTT (± SEM),aPTT; [3],45.8 ± 2.5 s
same,aPTT % Change from baseline,aPTT; [3],35%
same,Mean aPTT (± SEM),aPTT; [4],49.2 ± 2.6 s
same,aPTT % Change from baseline,aPTT; [4],51%
same,Mean aPTT (± SEM),aPTT; [5],53.0 ± 4.2 s
same,aPTT % Change from baseline,aPTT; [5],81%
same,Mean aPTT (± SEM),aPTT; [6],61.3 ± 3.8 s
same,aPTT % Change from baseline,aPTT; [6],94%
same,maximum mean aPTT change from baseline,aPTT; part B 20 mg h^−1,92%
same,Mean aPTT (± SEM),aPTT; [7],37.7 ± 2.0 s
same,aPTT % Change from baseline,aPTT; [7],31%
same,Mean aPTT (± SEM),aPTT; [8],42.4 ± 1.8 s
same,aPTT % Change from baseline,aPTT; [8],31%
same,Mean aPTT (± SEM),aPTT; [9],46.1 ± 1.2 s
same,aPTT % Change from baseline,aPTT; [9],47%
same,Mean aPTT (± SEM),aPTT; [10],44.0 ± 1.9 s
same,aPTT % Change from baseline,aPTT; [10],49%
same,Mean aPTT (± SEM),aPTT; [11],52.0 ± 1.3 s
same,aPTT % Change from baseline,aPTT; [11],63%
same,Mean aPTT (± SEM),aPTT; [12],52.6 ± 6.8 s
same,aPTT % Change from baseline,aPTT; [12],76%
same,Mean aPTT (± SEM),aPTT; [13],63.0 ± 4.9 s
same,aPTT % Change from baseline,aPTT; [13],92%
same,Mean aPTT (± SEM),aPTT; [14],57.2 ± 4.0 s
same,aPTT % Change from baseline,aPTT; [14],83%
same,time to maximal effect on aPTT after initiation of the IV infusion,"aPTT; part B, day 1",approximately 2 h
same,PT/INR change,PT/INR,did not change; also recorded: no effect on PT/INR
same,tolerability,"[1]; 2-h and 5-day IV infusions, healthy subjects",well tolerated
same,AE frequency: ecchymosis,[1]; BMS-962212 groups,1.4%
same,AE frequency: flatulence,[1]; BMS-962212 groups,1.4%
same,AE frequency: headache,[1]; BMS-962212 groups,2.9%
same,AE frequency: infusion site pain or irritation,[1]; BMS-962212 groups,5.9%
same,AE frequency: nausea,[1]; BMS-962212 groups,2.9%
same,AE frequency: upper respiratory tract infection,[1]; BMS-962212 groups,2.9%
same,frequency of AEs,[1]; Japanese subjects,17.6%
same,subjects reporting AEs,[1]; all subjects assigned to BMS-962212 (12 of 68),17.6%
same,maximum tolerated dose,[1]; no dose-limiting AEs observed,not established
same,frequency of AEs,[1]; non-Japanese subjects,29.4%
same,subjects reporting AEs,"[1]; part A, subjects assigned to BMS-962212 (four of 34)",11.7%
same,subjects reporting AEs,"[1]; part B, subjects assigned to BMS-962212 (eight of 34)",23.5%
same,bleeding,[1]; parts A and B,no signs of bleeding
same,deaths or serious AEs,[1]; parts A and B,No deaths or serious AEs were reported
same,iohexol plasma clearance (GFR),"Renal safety assessment; panel 1A, 1.5 mg h^−1 2-h IV infusion, day −2 vs day 1, and vs placebo",No clinically relevant differences
same,serum creatinine mean increase,Renal safety assessment; [15],0.28 mg/dL
same,serum creatinine median increase,Renal safety assessment; [15],0.35 mg/dL
same,mean percentage decrease in eGFR (based on serum creatinine),"Renal safety assessment; part A panel 1, 1.5 mg h^−1, 12 h postdose",−22.58%
same,antithrombotic efficacy and haemostasis,rabbit models,shows antithrombotic efficacy at doses which preserve haemostasis
same,Tmax,[2],1 to 2 h
same,half-life,"[2]; 1 mg, t 1/2, part B 1 mg h^−1, Japanese ethnicity (n = 4), mean (CV%)",7.32 h
same,half-life,"[2]; 1 mg, t 1/2, part B 1 mg h^−1, Non-Japanese ethnicity (n = 4), mean (CV%)",5.3 h
same,half-life,"[2]; 3 mg, t 1/2, part B 3 mg h^−1, Japanese ethnicity (n = 4), mean (CV%)",6.42 h
same,half-life,"[2]; 3 mg, t 1/2, part B 3 mg h^−1, Non-Japanese ethnicity (n = 4), mean (CV%)",6.05 h
same,half-life,"[2]; 9 mg, t 1/2, part B 9 mg h^−1, Japanese ethnicity (n = 4), mean (CV%)",8.28 h
same,half-life,"[2]; 9 mg, t 1/2, part B 9 mg h^−1, Non-Japanese ethnicity (n = 4), mean (CV%)",8.32 h
same,half-life,"[2]; 20 mg, t 1/2, part B 20 mg h^−1, Japanese ethnicity (n = 4), mean (CV%)",8.28 h
same,half-life,"[2]; 20 mg, t 1/2, part B 20 mg h^−1, Non-Japanese ethnicity (n = 4), mean (CV%)",7.23 h
same,AUC(0-inf),"[2]; iv, 1 mg h^−1",6380 ng·h/mL
same,AUC(0-t),"[2]; iv, 1 mg h^−1",6300 ng·h/mL
same,Cmax,"[2]; iv, 1 mg h^−1",58.3 ng/mL
same,Tmax,"[2]; iv, 1 mg h^−1",24 h
same,clearance,"[2]; iv, 1 mg h^−1, CL, part B 5-day IV infusion 1 mg h^−1, geometric mean (CV%)",314 mL/min
same,Vd,"[2]; iv, 1 mg h^−1, Vz, part B 5-day IV infusion 1 mg h^−1, geometric mean (CV%)",188 L
same,half-life,"[2]; iv, 1 mg h^−1, t1/2, part B 5-day IV infusion 1 mg h^−1, geometric mean (CV%)",6.25 h
same,AUC(0-inf),"[2]; iv, 1.5 mg h^−1",180 ng·h/mL
same,AUC(0-t),"[2]; iv, 1.5 mg h^−1",122 ng·h/mL
same,Cmax,"[2]; iv, 1.5 mg h^−1",81.9 ng/mL
same,Tmax,"[2]; iv, 1.5 mg h^−1",1.5 h
